Measurements as given in ChEMBL document CHEMBL5370621, “Design, Synthesis, and Biological Evaluation of Novel Thioureidobenzamide (TBA) Derivatives as HBV Capsid Assembly Modulators” (J Med Chem, 2023).
pEC50, pIC50: −log10 of the molar value.

Legend:
[1] = Cytotoxicity against human HePAD38 cells assessed as reduction in cell viability incubated for 72 hrs by CCK8 assay; assay type: toxicity, cell-based
Hepatitis B virus = experiment: Antiviral activity against Hepatitis B virus infected in human HePAD38 cells assessed as inhibition of viral DNA replication by qPCR analysis; assay type: functional, organism-based
[2] = Selectivity index, ratio of CC50 for cytotoxicity against human HePAD38 cells to EC50 for antiviral activity against Hepatitis B virus infected in human HePAD38 cells; assay type: toxicity, cell-based; conditions: read-out: Ratio CC50/EC50
Core antigen = Core antigen (Hepatitis B virus, UniProt Q03732); experiment: Inhibition of fluorescent-labeled capsid assembly in Hepatitis B virus incubated for 1 hr by fluorescence based analysis
Chain of Core antigen (Q03732 whole entry): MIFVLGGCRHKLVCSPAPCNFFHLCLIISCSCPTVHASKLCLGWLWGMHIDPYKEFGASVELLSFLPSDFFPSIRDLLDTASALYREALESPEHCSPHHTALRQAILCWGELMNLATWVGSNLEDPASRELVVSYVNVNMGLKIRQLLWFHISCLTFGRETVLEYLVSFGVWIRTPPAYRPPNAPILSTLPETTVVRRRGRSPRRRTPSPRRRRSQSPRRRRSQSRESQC

Row | Compound | CC50 at 72 h [1] [µM] | pEC50 (Hepatitis B virus) | selectivity ratio [2] | pIC50 (Core antigen)
1 | CCCc1ccc(C(=O)Nc2cc(C(=O)Nc3ccc(F)c(C)c3)c(Br)cc2F)cc1 | 32 | 6.24 | 55.1 | 
2 | COCCC(=O)Nc1cc(C(=O)Nc2ccc(F)c(C)c2)c(Br)cc1F | 97.4 | 5.45 | 27.4 | 
3 | Cc1cc(NC(=O)c2cc(NC(=O)NC3CCCC3)c(F)cc2Br)ccc1F | 5.52 | 5.24 | 0.96 | 
4 | Cc1cc(NC(=O)c2cc(NC(=O)c3cc(F)c(F)c(F)c3)c(F)cc2Br)ccc1F | 18.1 | 6.08 | 21.8 | 
5 | Cc1cc(NC(=O)c2cc(NC(=O)NC3CCC(O)CC3)c(F)cc2Br)ccc1F (centres undefined) | > 100 | 5.13 | > 13.6 | 
6 | Cc1cc(NC(=O)c2cc(NC(=S)NCc3cc(F)cc(F)c3)c(F)cc2Br)ccc1F | 3.61 | 6.66 | 16.4 | 
7 | CCOC(=O)C1=C(CN2CCOCC2)NC(c2nccs2)=N[C@H]1c1ccc(C)cc1Br | > 100 | 7.77 | > 5920 | 6.07
8 | O=C(Nc1cc(F)c(F)c(F)c1)c1cc(S(=O)(=O)N[C@H]2CCOC2)c(F)cc1Br | 88.2 | 5.33 | 18.8 | 
9 | CCN(CC)S(=O)(=O)c1cc(C(=O)Nc2cc(F)c(F)c(F)c2)c(Br)cc1F | 4.47 | 6.34 | 9.72 | 
10 | Cc1cc(NC(=O)c2cc(NC(=O)c3ccc(F)cc3)c(F)cc2Br)ccc1F | 1.19 | 6.34 | 2.59 | 
11 | CCC(CC)NC(=O)Nc1cc(C(=O)Nc2ccc(F)c(C)c2)c(Br)cc1F | 18.1 | 6.00 | 18.2 | 
12 | CCNC(=S)Nc1cc(C(=O)Nc2ccc(F)c(C)c2)c(Br)cc1F | 43.6 | 6.74 | 242 | 
13 | Cc1cc(NC(=O)c2cc(NC(=O)C3CCCCC3)c(F)cc2Br)ccc1F | 20.7 | 5.87 | 15.3 | 
14 | C=C1[C@H](CO)[C@@H](O)C[C@@H]1n1cnc2c(=O)[nH]c(N)nc21 [ENTECAVIR ANHYDROUS] | 79.3 | 7.68 | 3780 | 
15 | Cc1cc(NC(=O)c2cc(NC(=O)NCc3cc(F)c(F)c(F)c3)c(F)cc2Br)ccc1F | 3.69 | 6.14 | 5.13 | 
16 | O=C(Nc1ccc(F)c(F)c1)c1cc(S(=O)(=O)N[C@H]2CCOC2)c(F)cc1Br | 63.7 | 6.03 | 67.8 | 
17 | O=C(Nc1ccc(F)cc1)c1cc(S(=O)(=O)N[C@H]2CCOC2)c(F)cc1Br | > 100 | 5.62 | > 41.8 | 
18 | Cc1cc(NC(=O)c2cc(NC(=O)NCc3ccc(C(C)(C)C)cc3)c(F)cc2Br)ccc1F | > 100 | 5.63 | > 42.9 | 
19 | Cc1cc(NC(=O)c2cc(NC(=S)NC(C)C(F)(F)F)c(F)cc2Br)ccc1F (centres undefined) | 17.1 | 7.62 | 710 | 
20 | Cc1cc(NC(=O)c2cc(NC(=O)C(=O)NC3CC3)c(F)cc2Br)ccc1F | 17 | 6.17 | 25.3 | 
21 | Cc1cc(CNC(=O)Nc2cc(C(=O)Nc3ccc(F)c(C)c3)c(Br)cc2F)ccc1F | 3.28 | 6.49 | 10.2 | 

Row | Compound | CC50 at 72 h [1] [µM] | pEC50 (Hepatitis B virus) | selectivity ratio [2] | pIC50 (Core antigen)
22 | Cc1cc(NC(=O)c2cc(S(=O)(=O)N[C@H]3CCOC3)c(F)cc2Br)ccc1F | > 100 | 6.21 | > 164 | 
23 | O=C(Nc1cc(F)c(F)c(F)c1)c1ccc(F)c(S(=O)(=O)N2CCC(O)CC2)c1 | 16.7 | 6.46 | 47.6 | 5.82
24 | Cc1cc(NC(=O)c2cc(NC(=S)NCc3ccc(B(O)O)cc3)c(F)cc2Br)ccc1F | 3.08 | 7.54 | 106 | 
25 | Cc1cc(NC(=O)c2cc(NC(=O)C3CCC3)c(F)cc2Br)ccc1F | 79.6 | 5.46 | 23 | 
26 | Cc1cc(NC(=O)c2cc(NC(=O)N3CCC(O)CC3)c(F)cc2Br)ccc1F | > 100 | 5.36 | > 23 | 
27 | Cc1cc(NC(=O)c2cc(NC(=O)C(=O)NC3CCCC3)c(F)cc2Br)ccc1F | 17.4 | < 4.70 | < 0.87 | 
28 | C=CC(=O)Nc1cc(C(=O)Nc2ccc(F)c(C)c2)c(Br)cc1F | 7.98 | 5.65 | 3.59 | 
29 | Cc1cc(NC(=O)c2cc(NC(=S)NCc3ccc(C(F)(F)F)cc3)c(F)cc2Br)ccc1F | 3.22 | 6.70 | 16.1 | 
30 | Cc1ccc(C(=O)Nc2cc(C(=O)Nc3ccc(F)c(C)c3)c(Br)cc2F)cc1 | 20.9 | 6.28 | 40.1 | 
31 | N#Cc1cc(NC(=O)c2cc(S(=O)(=O)N[C@H]3CCOC3)c(F)cc2Br)ccc1F | > 100 | 5.19 | > 15.4 | 
32 | Cc1cc(NC(=O)c2cc(NC(=O)c3cccs3)c(F)cc2Br)ccc1F | 85.1 | 6.18 | 129 | 
33 | Cc1cc(NC(=O)c2cc(NC(=O)NC(C)C)c(F)cc2Br)ccc1F | 19.1 | 5.94 | 16.6 | 
34 | O=C(Nc1cc(F)c(F)c(F)c1)c1cc(S(=O)(=O)NC2CCCC2)c(F)cc1Br | 34.5 | 6.96 | 313 | 
35 | Cc1cc(CNC(=S)Nc2cc(C(=O)Nc3ccc(F)c(C)c3)c(Br)cc2F)ccc1F | 3.71 | 7.00 | 37.1 | 
36 | O=C(Nc1ccc(F)c(Cl)c1)c1cc(S(=O)(=O)N[C@H]2CCOC2)c(F)cc1Br | 20.6 | 6.03 | 21.9 | 
37 | Cc1cc(NC(=O)c2cc(NC(=O)NCc3cc(F)cc(F)c3)c(F)cc2Br)ccc1F | 3.72 | 6.74 | 20.7 | 
38 | Cc1cc(NC(=O)c2cc(NC(=O)NCc3cccnc3)c(F)cc2Br)ccc1F | > 100 | 6.30 | > 200 | 
39 | Cc1cc(NC(=O)c2cc(NC(=O)C(=O)NC(C)C)c(F)cc2Br)ccc1F | > 100 | 6.70 | > 496 | 
40 | O=C(Nc1ccc(F)c(C(F)(F)F)c1)c1cc(S(=O)(=O)NC2CCCC2)c(F)cc1Br | > 100 | < 4.70 |  | 
41 | Cc1cc(NC(=O)c2cc(NC(=O)C3CCCC3)c(F)cc2Br)ccc1F | > 100 | 5.97 | > 93.5 | 
42 | Cc1cc(NC(=O)c2cc(NC(=O)c3ccc(Br)cc3)c(F)cc2Br)ccc1F | 2.4 | 6.72 | 12.6 | 

Row | Compound | CC50 at 72 h [1] [µM] | pEC50 (Hepatitis B virus) | selectivity ratio [2] | pIC50 (Core antigen)
43 | Cc1cc(NC(=O)c2cc(NC(=O)Nc3ccc(C(F)(F)F)cc3)c(F)cc2Br)ccc1F | 3.5 | 5.28 | 0.67 | 
44 | Cc1cc(NC(=O)c2cc(NC(=S)NCc3ccc(B(O)O)cc3)c(F)cc2C)ccc1F | 5.95 | 8.00 | 595 | 
45 | Cc1cc(NC(=O)c2cc(NC(=O)C3CC3)c(F)cc2Br)ccc1F | 84 | 6.27 | 155 | 
46 | O=C(Nc1cc(F)c(F)c(F)c1)c1cc(S(=O)(=O)N2CCC(O)CC2)c(F)cc1Br | 3.41 | 5.76 | 1.98 | 
47 | O=C(Nc1ccc(F)cc1)c1cc(S(=O)(=O)NC2CCCC2)c(F)cc1Br | 58 | 6.11 | 74.4 | 
48 | N#Cc1cc(NC(=O)c2cc(S(=O)(=O)NC3CCCC3)c(F)cc2Br)ccc1F | 19.3 | 5.84 | 13.3 | 
49 | Cc1cc(NC(=O)c2cc(S(=O)(=O)NC3CCCC3)c(F)cc2Br)ccc1F | > 100 | 6.36 | > 227 | 
50 | Cc1cc(NC(=O)c2cc(NC(=O)Nc3cc(F)c(F)c(F)c3)c(F)cc2Br)ccc1F | 2.59 | 5.93 | 2.19 | 
51 | C=CCNC(=S)Nc1cc(C(=O)Nc2ccc(F)c(C)c2)c(Br)cc1F | 50.1 | 6.85 | 358 | 
52 | Nc1ccn([C@@H]2CS[C@H](CO)O2)c(=O)n1 [LAMIVUDINE] | > 100 | 5.40 | > 25.1 | 
53 | Cc1cc(NC(=O)c2cc(NC(=O)c3ccc(C(F)(F)F)cc3)c(F)cc2Br)ccc1F | 4.88 | 6.00 | 4.83 | 
54 | C/C=C/C(=O)Nc1cc(C(=O)Nc2ccc(F)c(C)c2)c(Br)cc1F | 28.5 | 5.70 | 14.4 | 
55 | O=C(Nc1cc(F)cc(F)c1)c1cc(S(=O)(=O)NC2CCCC2)c(F)cc1Br | > 100 | 6.09 | > 123 | 
56 | O=C(Nc1ccc(F)c(C(F)(F)F)c1)c1cc(S(=O)(=O)N[C@H]2CCOC2)c(F)cc1Br | > 100 | 5.30 | > 19.8 | 
57 | Cc1cc(NC(=O)c2cc(NC(=O)c3ccc(C#N)cc3)c(F)cc2Br)ccc1F | 85.7 | 6.82 | 572 | 
58 | COc1ccc(CNC(=O)Nc2cc(C(=O)Nc3ccc(F)c(C)c3)c(Br)cc2F)cc1 | 4.88 | 7.06 | 56.1 | 
59 | Cc1cc(NC(=O)c2cc(NC(=O)NCc3ccc(F)cc3)c(F)cc2Br)ccc1F | 18.5 | 6.47 | 54.4 | 
60 | Cc1cc(NC(=O)c2cc(NC(=O)NCc3ccc(O)cc3)c(F)cc2Br)ccc1F | 1.99 | 6.92 | 16.6 | 
61 | Cc1cc(NC(=O)c2cc(NC(=O)NCc3ccc(C(F)(F)F)cc3)c(F)cc2Br)ccc1F | 11.8 | 6.48 | 35.6 | 
